How the values were obtained:
Assay type in all cases: in vivo
Soybean = assay: Spray drift test, application by unmanned gyroplane, soybean field at 10 meters; conditions: 600 g/ha, gyroplane at 1 m, gentle breeze
Procedure: Broadleaf crops are very sensitive to hormonal herbicides, therefore crop injuries are more likely to occur in case of spray drifting. Tests were conducted in gentle breeze for the compounds of the present invention. The formulation of the compounds of the present invention was applied by DJI unmanned gyroplane with application height of 1 m and water volume of 20 kg/ha. The use rate was 600 g/ha. The active ingredient was dissolved by acetone and diluted to aqueous solution of Tween 80. There's a soybean field at 10 meters from the application area and the height of soybean plants were about 15 cm at the application time.

Galium spurium = assay: Post-emergence test experiment (greenhouse pot, spray at 2-3 leaf stage); conditions: 1000 g/ha; post-emergence spray at 2-3 leaf stage; assessed after 3 weeks; fresh weight inhibition rate
Outline: (§1)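 Activity graded levels 0-5 by fresh-weight inhibition (level 5 above 85%, level 0 below 5%), assessed 3 weeks after treatment. Plants grown in greenhouse pots were sprayed post-emergence at 2-3 leaves using acetone/tween-80 solutions with methyl oleate synergist (1.5 L/ha).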

Echinochloa crusgalli = assay: as above; conditions: for Activity level (growth inhibition rate) Echinochloa crusgalli: 1000 g/ha, post-emergence spray at 2-3 leaf stage, assessed after 3 weeks, fresh weight inhibition rate
Outline: as §1

Digitaria sanguinalis = assay: as above; conditions: 1000 g/ha; post-emergence spray at 2-3 leaf stage; assessed after 3 weeks; fresh weight inhibition rate
Outline: as §1

Monochoria vaginalis [1] = assay: as above; conditions: 1000 g/ha; post-emergence spray at 2-3 leaf stage; assessed after 3 weeks; fresh weight inhibition rate
Outline: as §1

Abutilon theophrasti = assay: as above; conditions: 1000 g/ha; post-emergence spray at 2-3 leaf stage; assessed after 3 weeks; fresh weight inhibition rate
Outline: as §1

Indica rice = assay: as above; conditions: post-emergence, 100 g/ha, after 3 weeks
Outline: as §1

Cyperus iria = assay: as above; conditions: post-emergence, 100 g/ha, after 3 weeks; resistant to ALS inhibitor herbicides
Outline: as §1

Japonica rice = assay: as above; conditions: post-emergence, 100 g/ha, after 3 weeks
Outline: as §1

Monochoria vaginalis [2] = assay: Weed control effect evaluation in rice field soil pot; conditions: paddy pot, 50 g/ha, 14 days after treatment; resistant to pyrazosulfuron-ethyl and penoxsulam
Source text: The activity level standard of harmful plants destruction (i. e. growth inhibition rate) is as follows: • Level 5: the growth inhibition rate is greater than 85%; • Level 4: the growth inhibition rate is equal to or greater than 60% and less than 85%; • Level 3: the growth inhibition rate is equal to or greater than 40% and less than 60%; • Level 2: the growth inhibition rate is equal to or greater than 20% and less than 40%; • Level 1: the growth inhibition rate is equal to or greater than 5% and less than 20%; • Level 0: the growth inhibition rate is less than 5%;
Transplanted rice safety evaluation and weed control effect evaluation in rice field:
Rice field soil was loaded into a 1/1,000,000 ha pot. The seeds of Monochoria vaginalis were sowed and gently covered with soil, then left to stand still in greenhouse in the state of 0.5-1 cm of water storage. It was kept at 3-4 cm of water storage thereafter. The weeds were treated by dripping the WP or SC water diluents prepared according to the common preparation method of the compounds of the present invention with pipette homogeneously to achieve specified effective amount when Monochoria vaginalis reached 0.5 leaf stage.
The fertility condition of Monochoria vaginalis 14 days and rice 21 days after the treatment of the compound of the invention with the naked eye.

Compound: CC(Oc1nc(F)c(Cl)c(N)c1Cl)C(=O)SCc1ccc(-c2ccccc2)cc1 (racemic) [Compound 113]
- Soybean, injury level by spray drift (Soybean): 0 (Level 0: the growth inhibition rate is less than 5%)
- Activity level (growth inhibition rate) Galium spurium (Galium spurium): 5 (Level 5: the growth inhibition rate is greater than 85%)
- Activity level (growth inhibition rate) Echinochloa crusgalli (Echinochloa crusgalli): 5 (Level 5: the growth inhibition rate is greater than 85%)
- Activity level (growth inhibition rate) Digitaria sanguinalis (Digitaria sanguinalis): 5 (Level 5: the growth inhibition rate is greater than 85%)
- Activity level (growth inhibition rate) Monochoria Vaginalis (Monochoria vaginalis [1]): 5 (Level 5: the growth inhibition rate is greater than 85%)
- Activity level (growth inhibition rate) Abutilon theophrasti (Abutilon theophrasti): 5 (Level 5: the growth inhibition rate is greater than 85%)

Compound: COc1cc(OC)nc(Oc2cccc(Oc3nc(OC)cc(OC)n3)c2C(=O)O)n1 [Bispyribac-sodium, reference compound]
- Indica rice, activity level (growth inhibition rate) (Indica rice): 2 (Level 2: the growth inhibition rate is equal to or greater than 20% and less than 40%)
- Echinochloa crusgalli, activity level (growth inhibition rate) (Echinochloa crusgalli; post-emergence, 100 g/ha, after 3 weeks, resistant to ALS inhibitor herbicides): 1 (Level 1: the growth inhibition rate is equal to or greater than 5% and less than 20%)
- Cyperus iria, activity level (growth inhibition rate) (Cyperus iria): 2 (Level 2: the growth inhibition rate is equal to or greater than 20% and less than 40%)
- Japonica rice, activity level (growth inhibition rate) (Japonica rice): 4 (Level 4: the growth inhibition rate is equal to or greater than 60% and less than 85%)

Compound: CC(Oc1nc(F)c(F)c(N)c1F)C(=O)OCc1ccccc1 (centres unmarked) [Compound 1]
- Soybean, injury level by spray drift (Soybean): 0 (Level 0: the growth inhibition rate is less than 5%)
- Activity level (growth inhibition rate) Galium spurium (Galium spurium): 5 (Level 5: the growth inhibition rate is greater than 85%)
- Activity level (growth inhibition rate) Echinochloa crusgalli (Echinochloa crusgalli): 5 (Level 5: the growth inhibition rate is greater than 85%)
- Activity level (growth inhibition rate) Digitaria sanguinalis (Digitaria sanguinalis): 5 (Level 5: the growth inhibition rate is greater than 85%)
- Activity level (growth inhibition rate) Monochoria Vaginalis (Monochoria vaginalis [1]): 5 (Level 5: the growth inhibition rate is greater than 85%)
- Activity level (growth inhibition rate) Abutilon theophrasti (Abutilon theophrasti): 5 (Level 5: the growth inhibition rate is greater than 85%)

Compound: CC(Oc1nc(Cl)c(Cl)c(N)c1Cl)C(=O)OCc1ccccc1 (centres unmarked) [Compound 2]
- Soybean, injury level by spray drift (Soybean): 0 (Level 0: the growth inhibition rate is less than 5%)
- Activity level (growth inhibition rate) Galium spurium (Galium spurium): 5 (Level 5: the growth inhibition rate is greater than 85%)
- Activity level (growth inhibition rate) Echinochloa crusgalli (Echinochloa crusgalli): 5 (Level 5: the growth inhibition rate is greater than 85%)
- Activity level (growth inhibition rate) Digitaria sanguinalis (Digitaria sanguinalis): 5 (Level 5: the growth inhibition rate is greater than 85%)
- Activity level (growth inhibition rate) Monochoria Vaginalis (Monochoria vaginalis [1]): 5 (Level 5: the growth inhibition rate is greater than 85%)
- Activity level (growth inhibition rate) Abutilon theophrasti (Abutilon theophrasti): 5 (Level 5: the growth inhibition rate is greater than 85%)

Compound: CC(Oc1ncc(Cl)c(N)c1Cl)C(=O)OCc1ccccc1 (centres unmarked) [Compound 3]
- Soybean, injury level by spray drift (Soybean): 0 (Level 0: the growth inhibition rate is less than 5%)
- Activity level (growth inhibition rate) Galium spurium (Galium spurium): 5 (Level 5: the growth inhibition rate is greater than 85%)
- Activity level (growth inhibition rate) Echinochloa crusgalli (Echinochloa crusgalli): 5 (Level 5: the growth inhibition rate is greater than 85%)
- Activity level (growth inhibition rate) Digitaria sanguinalis (Digitaria sanguinalis): 5 (Level 5: the growth inhibition rate is greater than 85%)
- Activity level (growth inhibition rate) Monochoria Vaginalis (Monochoria vaginalis [1]): 5 (Level 5: the growth inhibition rate is greater than 85%)
- Activity level (growth inhibition rate) Abutilon theophrasti (Abutilon theophrasti): 5 (Level 5: the growth inhibition rate is greater than 85%)

Compound: COC(Oc1nc(F)c(Cl)c(N)c1Cl)C(=O)SCc1ccccc1 (centres unmarked) [Compound 50]
- Soybean, injury level by spray drift (Soybean): 0 (Level 0: the growth inhibition rate is less than 5%)
- Activity level (growth inhibition rate) Galium spurium (Galium spurium): 5 (Level 5: the growth inhibition rate is greater than 85%)
- Activity level (growth inhibition rate) Monochoria Vaginalis (Monochoria vaginalis [1]): 5 (Level 5: the growth inhibition rate is greater than 85%)
- Activity level (growth inhibition rate) Abutilon theophrasti (Abutilon theophrasti): 5 (Level 5: the growth inhibition rate is greater than 85%)

Compound: Nc1c(Cl)c(F)nc(OC(Cc2ccccc2)C(=O)OCc2ccccc2)c1Cl (centres unmarked) [Compound 53]
- Soybean, injury level by spray drift (Soybean): 0 (Level 0: the growth inhibition rate is less than 5%)
- Activity level (growth inhibition rate) Galium spurium (Galium spurium): 5 (Level 5: the growth inhibition rate is greater than 85%)
- Activity level (growth inhibition rate) Monochoria Vaginalis (Monochoria vaginalis [1]): 5 (Level 5: the growth inhibition rate is greater than 85%)
- Activity level (growth inhibition rate) Abutilon theophrasti (Abutilon theophrasti): 5 (Level 5: the growth inhibition rate is greater than 85%)

Compound: Nc1c(Cl)c(F)nc(OC(C(=O)OCc2ccccc2)c2cccs2)c1Cl (centres unmarked) [Compound 54]
- Soybean, injury level by spray drift (Soybean): 0 (Level 0: the growth inhibition rate is less than 5%)
- Activity level (growth inhibition rate) Galium spurium (Galium spurium): 5 (Level 5: the growth inhibition rate is greater than 85%)
- Activity level (growth inhibition rate) Monochoria Vaginalis (Monochoria vaginalis [1]): 5 (Level 5: the growth inhibition rate is greater than 85%)
- Activity level (growth inhibition rate) Abutilon theophrasti (Abutilon theophrasti): 5 (Level 5: the growth inhibition rate is greater than 85%)

Compound: CC(Oc1nc(F)c(Cl)c(N)c1Cl)C(=O)OCc1cc(C(F)(F)F)ccc1F (centres unmarked) [Compound 82]
- Soybean, injury level by spray drift (Soybean): 0 (Level 0: the growth inhibition rate is less than 5%)
- Activity level (growth inhibition rate) Galium spurium (Galium spurium): 5 (Level 5: the growth inhibition rate is greater than 85%)
- Activity level (growth inhibition rate) Echinochloa crusgalli (Echinochloa crusgalli): 5 (Level 5: the growth inhibition rate is greater than 85%)
- Activity level (growth inhibition rate) Digitaria sanguinalis (Digitaria sanguinalis): 5 (Level 5: the growth inhibition rate is greater than 85%)
- Activity level (growth inhibition rate) Monochoria Vaginalis (Monochoria vaginalis [1]): 5 (Level 5: the growth inhibition rate is greater than 85%)
- Activity level (growth inhibition rate) Abutilon theophrasti (Abutilon theophrasti): 5 (Level 5: the growth inhibition rate is greater than 85%)

Compound: CC(Oc1nc(F)c(Cl)c(N)c1Cl)C(=O)OCc1c(F)ccc(F)c1F (centres unmarked) [Compound 83]
- Soybean, injury level by spray drift (Soybean): 0 (Level 0: the growth inhibition rate is less than 5%)
- Activity level (growth inhibition rate) Galium spurium (Galium spurium): 5 (Level 5: the growth inhibition rate is greater than 85%)
- Activity level (growth inhibition rate) Echinochloa crusgalli (Echinochloa crusgalli): 5 (Level 5: the growth inhibition rate is greater than 85%)
- Activity level (growth inhibition rate) Digitaria sanguinalis (Digitaria sanguinalis): 5 (Level 5: the growth inhibition rate is greater than 85%)
- Activity level (growth inhibition rate) Monochoria Vaginalis (Monochoria vaginalis [1]): 5 (Level 5: the growth inhibition rate is greater than 85%)
- Activity level (growth inhibition rate) Abutilon theophrasti (Abutilon theophrasti): 5 (Level 5: the growth inhibition rate is greater than 85%)

Compound: CC(Oc1nc(F)c(Cl)c(NCc2ccco2)c1Cl)C(=O)OCc1ccccc1 (centres unmarked) [Compound 193]
- Soybean, injury level by spray drift (Soybean): 0 (Level 0: the growth inhibition rate is less than 5%)
- Activity level (growth inhibition rate) Galium spurium (Galium spurium): 5 (Level 5: the growth inhibition rate is greater than 85%)
- Activity level (growth inhibition rate) Echinochloa crusgalli (Echinochloa crusgalli): 5 (Level 5: the growth inhibition rate is greater than 85%)
- Activity level (growth inhibition rate) Digitaria sanguinalis (Digitaria sanguinalis): 5 (Level 5: the growth inhibition rate is greater than 85%)
- Activity level (growth inhibition rate) Monochoria Vaginalis (Monochoria vaginalis [1]): 5 (Level 5: the growth inhibition rate is greater than 85%)
- Activity level (growth inhibition rate) Abutilon theophrasti (Abutilon theophrasti): 5 (Level 5: the growth inhibition rate is greater than 85%)

Compound: COc1cnc(OC)n2nc(NS(=O)(=O)c3c(OCC(F)F)cccc3C(F)(F)F)nc12 [Penoxsulam, reference compound]
- Monochoria Vaginalis, activity level (Monochoria vaginalis [2]): 1 (Level 1: the growth inhibition rate is equal to or greater than 5% and less than 20%)

Source: US12049450B2, “Pyridyloxy-carboxylate derivative and preparation method therefor, herbicidal composition, and use” (Qingdao Kingagroot Chemical Compound Co., Ltd., priority 2018, dated 2024)
